Source: patent US20240116985A1, “STAPLED PEPTIDES AND METHODS THEREOF” (priority 2020, published 2024)
Like-named read-outs stand apart in the source and are kept apart here.

Key:
[1] = target: T1, full-length beta-Catenin (Uniprot ID P35222) (Homo sapiens, UniProt P35222); experiment: Fluorescence polarization IC50 (beta-catenin / 5FAM-TCF4 10-53 competition); assay type: binding
T1 construct: 10 nM full-length beta-Catenin (Uniprot ID P35222)
T1 sequence (P35222 1-781): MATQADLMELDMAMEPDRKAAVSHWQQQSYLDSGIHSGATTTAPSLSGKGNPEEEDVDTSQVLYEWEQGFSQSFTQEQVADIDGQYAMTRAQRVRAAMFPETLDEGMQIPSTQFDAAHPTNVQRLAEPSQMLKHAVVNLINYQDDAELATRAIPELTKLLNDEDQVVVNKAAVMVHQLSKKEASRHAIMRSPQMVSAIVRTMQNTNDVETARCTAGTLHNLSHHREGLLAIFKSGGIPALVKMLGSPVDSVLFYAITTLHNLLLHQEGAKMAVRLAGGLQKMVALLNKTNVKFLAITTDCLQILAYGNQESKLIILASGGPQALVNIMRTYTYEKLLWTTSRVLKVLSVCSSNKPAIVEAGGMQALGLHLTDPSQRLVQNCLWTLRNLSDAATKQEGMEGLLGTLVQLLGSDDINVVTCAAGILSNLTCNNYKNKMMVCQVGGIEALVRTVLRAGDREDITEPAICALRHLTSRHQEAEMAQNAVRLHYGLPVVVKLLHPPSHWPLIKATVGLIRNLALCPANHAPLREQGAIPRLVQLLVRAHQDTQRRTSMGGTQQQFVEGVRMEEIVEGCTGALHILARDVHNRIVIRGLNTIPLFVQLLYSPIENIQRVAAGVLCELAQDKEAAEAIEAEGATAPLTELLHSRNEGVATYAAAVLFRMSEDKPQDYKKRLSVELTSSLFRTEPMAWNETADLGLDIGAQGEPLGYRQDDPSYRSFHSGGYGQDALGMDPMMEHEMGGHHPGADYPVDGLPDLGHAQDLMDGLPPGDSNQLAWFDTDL

[2] = CHI Log D procedure; assay type: physicochemical; conditions: for chromatographic logD: pH 7.4, CHI Log D
[3] = Table E2-1, read-out: beta-Catenin FP IC50
[4] = fluorescence polarization, read-out: beta-Catenin FP IC50
[5] = fluorescence polarization, beta-catenin, read-out: FP EC50

Row | Structure (SMILES) | chromatographic logD [2] | IC50 [1, 4] [nM] | IC50 ([1]; read-out: FP EC50) [nM] | CHI Log D ([2]; pH 7.4) | further results
1 | CC(=O)N[C@@H](Cc1ccccc1)C(=O)N[C@@H](CC(=O)O)C(=O)N[C@@H](C)C(=O)N[C@]1(C)CCCCCCC=CCOC(=O)N2CC[C@@](C(=O)N[C@@H](Cc3ccccc3)C(=O)N[C@@H](Cc3c[nH]c4ccccc34)C(=O)N[C@@H](CCC(N)=O)C(N)=O)(C2)NC(=O)[C@H](C(C)C)NC(=O)[C@H](Cc2ccc(F)cc2)NC(=O)[C@H](C)NC(=O)[C@H](C)NC(=O)[C@H](CC(=O)O)NC(=O)[C@H](CC(=O)O)NC1=O [I-78, Ac-Phe-Asp-Ala-R8-Asp-Asp-Ala-Ala-4FF-Val-PyrS-Phe-Trp-Gln-NH2] | 1.24 | – | – | – | IC50 [1, 3]: 5000 nM
2 | CC[C@H](C)[C@H](NC(=O)[C@H](Cc1c[nH]cn1)NC(=O)[C@H](Cc1csc2ccccc12)NC(=O)[C@H](Cc1ccccc1)NC(=O)[C@]1(C)CCCCCCC=CCCCC2(CCCC=CC[C@]3(CCCN3C(C)=O)C(=O)N[C@@H](CC(=O)O)C(=O)N[C@@H](CC(C)C)C(=O)N2)C(=O)N[C@@H](CC(=O)O)C(=O)N[C@@H](CCC(=O)O)C(=O)N[C@@H](C)C(=O)N[C@@H](C)C(=O)N[C@@H](Cc2ccccc2)C(=O)N[C@@H](CC(N)=O)C(=O)N1)C(N)=O (stereo partly drawn) [I-740, Ac-PL3-Asp-Leu-B5-Asp-Glu-Ala-Ala-Phe-Asn-S8-Phe-BztA-His-Ile-NH2] | – | 376 | 376 | 2.822 | –
3 | CC(=O)N1CCC[C@]12CC=CCCCC1(CCCC=CCCCCCC[C@@](C)(C(=O)N[C@@H](Cc3ccccc3C(F)(F)F)C(=O)N[C@@H](Cc3csc4ccccc34)C(=O)N[C@@H](CCC(N)=O)C(N)=O)NC(=O)[C@H](CC(N)=O)NC(=O)[C@H](Cc3ccccc3)NC(=O)[C@H](C)NC(=O)[C@H](C)NC(=O)[C@H](CN(CC(=O)O)CC(F)(F)F)NC(=O)[C@H](CC(=O)O)NC1=O)NC(=O)[C@H](CC(C)(C)C)NC(=O)[C@H](CC(=O)O)NC2=O (stereo partly drawn) [I-934, Ac-PL3-Asp-Npg-B5-Asp-TfeGA-Ala-Ala-Phe-Asn-S8-2F3MeF-BztA-Gln-NH2] | 2.82 | – | – | – | IC50 ([1]; read-out: beta-Catenin FP IC50): 69 nM
4 | CC(=O)N1CCC[C@]12CC=CCCCC1(CCCC=CCCCCCC[C@@](C)(C(=O)N[C@@H](Cc3cccc(F)c3)C(=O)N[C@@H](Cc3csc4ccccc34)C(=O)N[C@@H](CCC(N)=O)C(N)=O)NC(=O)[C@H](C(C)C)NC(=O)[C@H](Cc3ccccc3)NC(=O)[C@H](C)NC(=O)[C@H](C)NC(=O)[C@H](Cc3c[nH]cn3)NC(=O)[C@H](CC(=O)O)NC1=O)NC(=O)[C@H](C)NC(=O)[C@H](CC(=O)O)NC2=O (stereo partly drawn) [I-396, Ac-PL3-Asp-Ala-B5-Asp-His-Ala-Ala-Phe-Val-S8-3FF-BztA-Gln-NH2] | – | 3430 | – | 2.819 | IC50 [1, 5]: 3430 nM
5 | CC(=O)N1CCC[C@]12CC=CCCCC1(CCCC=CCCCCCC[C@@](C)(C(=O)N[C@@H](Cc3cccc(F)c3)C(=O)N[C@@H](Cc3csc4ccccc34)C(=O)N[C@@H](CCC(N)=O)C(N)=O)NC(=O)[C@H](C(C)C)NC(=O)[C@H](Cc3ccccc3)NC(=O)[C@H](C)NC(=O)[C@H](C)NC(=O)[C@H](Cc3cccs3)NC(=O)[C@H](CC(=O)O)NC1=O)NC(=O)[C@H](C)NC(=O)[C@H](CC(=O)O)NC2=O (stereo partly drawn) [I-402, Ac-PL3-Asp-Ala-B5-Asp-2Thi-Ala-Ala-Phe-Val-S8-3FF-BztA-Gln-NH2] | 3.39 | 5000 | – | – | –
6 | CC(=O)N1CCC[C@]12CC=CCCCC1(CCCC=CCCCCCC[C@@](C)(C(=O)N[C@@H](Cc3ccccc3)C(=O)N[C@@H](Cc3csc4ccccc34)C(=O)N[C@@H](CCC(N)=O)C(N)=O)NC(=O)[C@H](CCC(N)=O)NC(=O)[C@H](Cc3ccccc3)NC(=O)[C@H](C)NC(=O)[C@H](C)NC(=O)[C@H](CCC(=O)O)NC(=O)[C@H](CC(=O)O)NC1=O)NC(=O)[C@H](CCCCNC(=O)CN=[N+]=[N-])NC(=O)[C@H](CC(=O)O)NC2=O (stereo partly drawn) [I-589, Ac-PL3-Asp-[AzAc]Lys-B5-Asp-Glu-Ala-Ala-Phe-Gln-S8-Phe-BztA-Gln-NH2] | – | – | 48 | 2.119 | –
7 | CC[C@H](C)[C@@H]1NC(=O)[C@H](CC(=O)O)NC(=O)[C@]2(CC=CCCCC3(CCCC=CCCCCCC[C@@](C)(C(=O)N[C@@H](Cc4ccccc4)C(=O)N[C@@H](Cc4csc5ccccc45)C(=O)N[C@@H](CCC(N)=O)C(N)=O)NC(=O)[C@H](CCC(N)=O)NC(=O)[C@H](Cc4ccccc4)NC(=O)[C@H](C)NC(=O)[C@H](C)NC(=O)[C@H](CN(CC(=O)O)CC(F)(F)F)NC(=O)[C@H](CC(=O)O)NC3=O)NC1=O)CCCN2C(C)=O (stereo partly drawn) [I-611, Ac-PL3-Asp-Ile-B5-Asp-TfeGA-Ala-Ala-Phe-Gln-S8-Phe-BztA-Gln-NH2] | – | 55 | 55 | 2.595 | IC50 ([1]; read-out: bCat FP IC50): 55 nM; logD ([2]; pH 7.4): 2.6
8 | CC(=O)N1CCC[C@]12CC=CCCCC1(CCCC=CCCCCCC[C@@](C)(C(=O)N[C@@H](Cc3ccccc3)C(=O)N[C@@H](Cc3c[nH]c4ccccc34)C(N)=O)NC(=O)[C@H](C(C)C)NC(=O)[C@H](Cc3ccccc3)NC(=O)[C@H](C)NC(=O)[C@H](C)NC(=O)[C@H](CC(=O)O)NC(=O)[C@H](CC(=O)O)NC1=O)NC(=O)[C@H](C)NC(=O)[C@H](CC(=O)O)NC2=O (stereo partly drawn) [I-290, Ac-PL3-Asp-Ala-B5-Asp-Asp-Ala-Ala-Phe-Val-S8-Phe-Trp-NH2] | – | – | – | 2.271 | IC50 [1, 3]: 3290 nM; IC50 [1, 5]: 3290 nM
9 | CC(=O)N1CCC[C@]12CC=CCCCC1(CCCC=CCCCCCC[C@@](C)(C(=O)N[C@@H](Cc3ccccc3)C(=O)N[C@@H](Cc3csc4ccccc34)C(=O)N[C@@H](CCC(N)=O)C(N)=O)NC(=O)[C@H](CCC(N)=O)NC(=O)[C@H](Cc3ccccc3)NC(=O)[C@H](C)NC(=O)[C@H](C)NC(=O)[C@H](CCC(=O)O)NC(=O)[C@H](CC(=O)O)NC1=O)NC(=O)[C@H](CCCCNC(=O)CN=[N+]=[N-])NC(=O)[C@H](CC(=O)O)NC2=O (stereo partly drawn) [I-590, Ac-PL3-Asp-[AzAc]Lys-B5-Asp-Glu-Ala-Ala-Phe-Gln-S8-Phe-BztA-Gln-NH2] | – | – | 45 | 2.152 | –
10 | CC(=O)N1CCC[C@]12CC=CCCCC1(CCCC=CCCCCCC[C@@](C)(C(=O)N[C@@H](Cc3cccc(F)c3)C(=O)N[C@@H](Cc3csc4ccccc34)C(=O)N[C@@H](CCC(N)=O)C(N)=O)NC(=O)[C@H](CCC(N)=O)NC(=O)[C@H](Cc3cccs3)NC(=O)[C@H](C)NC(=O)[C@H](C)NC(=O)[C@H](CCC(=O)O)NC(=O)[C@H](CC(=O)O)NC1=O)NC(=O)[C@H](C)NC(=O)[C@H](CC(=O)O)NC2=O (stereo partly drawn) [I-401, Ac-PL3-Asp-Ala-B5-Asp-Glu-Ala-Ala-2Thi-Gln-S8-3FF-BztA-Gln-NH2] | 2.28 | 134 | – | – | –
11 | CC(=O)N1CCC[C@]12CC=CCCCC1(CCCC=CCOC(=O)N(C)CCC[C@@](C)(C(=O)N[C@@H](Cc3cccc(F)c3)C(=O)N[C@@H](Cc3csc4ccccc34)C(=O)N[C@@H](CCC(N)=O)C(N)=O)NC(=O)[C@H](CCC(N)=O)NC(=O)[C@H](Cc3ccccc3)NC(=O)[C@H](C)NC(=O)[C@H](C)NC(=O)[C@H](Cc3c[nH]cn3)NC(=O)[C@H](CC(=O)O)NC1=O)NC(=O)[C@H](C)NC(=O)[C@H](CC(=O)O)NC2=O (stereo partly drawn) [I-400, Ac-PL3-Asp-Ala-B5-Asp-His-Ala-Ala-Phe-Gln-SeN-3FF-BztA-Gln-NH2] | 1.92 | 3590 | – | – | –
12 | CC(=O)N1CCC[C@]12CC=CCCCC1(CCCC=CCCCCCC[C@@](C)(C(=O)N[C@@H](Cc3ccccc3)C(=O)N[C@@H](Cc3c[nH]c4ccccc34)C(=O)N[C@@H](C)C(N)=O)NC(=O)[C@H](C)NC(=O)[C@H](Cc3ccccc3)NC(=O)[C@H](C)NC(=O)[C@H](C)NC(=O)[C@H](CCC(=O)O)NC(=O)[C@H](CC(=O)O)NC1=O)NC(=O)[C@H](C)NC(=O)[C@H](CC(=O)O)NC2=O (stereo partly drawn) [I-187, Ac-PL3-Asp-Ala-B5-Asp-Glu-Ala-Ala-Phe-Ala-S8-Phe-Trp-Ala-NH2] | – | – | – | 2.083 | IC50 [1, 3]: 3320 nM; IC50 [1, 5]: 3320 nM
13 | CC[C@H](C)[C@@H]1NC(=O)[C@H](CC(=O)O)NC(=O)[C@]2(CC=CCCCC3(CCCC=CCCCCCC[C@@](C)(C(=O)N[C@@H](Cc4ccccc4)C(=O)N[C@@H](Cc4csc5ccccc45)C(=O)N[C@@H](Cc4c[nH]cn4)C(N)=O)NC(=O)[C@H](CC(N)=O)NC(=O)[C@H](Cc4ccccc4)NC(=O)[C@H](C)NC(=O)[C@H](C)NC(=O)[C@H](CC(=O)O)NC(=O)[C@H](CC(=O)O)NC3=O)NC1=O)CCCN2C(C)=O (stereo partly drawn) [I-469, Ac-PL3-Asp-Ile-B5-Asp-Asp-Ala-Ala-Phe-Asn-S8-Phe-BztA-His-NH2] | – | 27 | 27 | 2.354 | –
14 | CC(=O)N1CCC[C@]12CC=CCCCC1(CCCC=CCCCCCC[C@@](C)(C(=O)N[C@@H](Cc3ccccc3)C(=O)N[C@@H](Cc3csc4ccccc34)C(=O)N[C@@H](CCC(N)=O)C(N)=O)NC(=O)[C@H](CC(N)=O)NC(=O)[C@H](Cc3ccccc3C)NC(=O)[C@H](C)NC(=O)[C@H](C)NC(=O)[C@H](CCC(=O)O)NC(=O)[C@H](CC(=O)O)NC1=O)NC(=O)[C@H](C)NC(=O)[C@H](CC(=O)O)NC2=O (stereo partly drawn) [I-457, Ac-PL3-Asp-Ala-B5-Asp-Glu-Ala-Ala-2MeF-Asn-S8-Phe-BztA-Gln-NH2] | – | 1440 | 1440 | 2.0242 | –
